Assay results as given in patent publication US12357636B2 (Urovant Sciences GmbH, priority 2018, dated 2025).

Tested on: patients with OAB
Test: Phase 2b study: cardiovascular safety, orthostatic AEs, blood pressure and heart rate changes (Table 17)
Type: in vivo, human
Conditions: for SBP Change from Baseline [≥] 5 mm Hg, n/N (%) / SBP Change from Baseline [≥] 10 mm Hg, n/N (%) / SBP Change from Baseline ≥15 mm Hg, n/N (%) / DBP Change from Baseline [≥] 5 mm Hg, n/N (%) / DBP Change from Baseline [≥] 10 mm Hg, n/N (%) / DBP Change from Baseline ≥15 mm Hg, n/N (%) / HR Change from Baseline [≥] 10 bpm, n/N (%) / HR Change from Baseline ≥5 bpm, n/N (%) / HR Change from Baseline ≥15 bpm, n/N (%): counts based on 3 consecutive post-baseline visits; for DBP Change from Baseline, Mean (95% CI) Max / HR Change from Baseline, Mean (95% CI) Maximum / SBP Change from Baseline, Mean (95% CI) Maximum: mean maximum from week 1 to 8
Text: None led to discontinuation. The overall incidence of orthostatic symptoms was low.
Small differences in the percent of subjects exceeding categorical heart rate and blood pressure thresholds for vibegron were similar to those in the tolterodine arm.

O=C(Nc1ccc(C[C@@H]2CC[C@H]([C@H](O)c3ccccc3)N2)cc1)[C@@H]1CCc2nccc(=O)n21 [Vibegron, (6S)—N-[4-[[(2S,5R)-5-[(R)-hydroxy(phenyl)methyl]pyrrolidin-2-yl]methyl]phenyl]-4-oxo-7,8-dihydro-6H-pyrrolo[1,2-a]pyrimidine-6-carboxamide]
SBP Change from Baseline [≥] 5 mm Hg, n/N (%) (vibegron 3 mg): 21/140 (15.0) % | SBP Change from Baseline [≥] 10 mm Hg, n/N (%) (vibegron 3 mg): 10/140 (7.1) % | SBP Change from Baseline ≥15 mm Hg, n/N (%) (vibegron 3 mg): 4/140 (2.9) % | DBP Change from Baseline, Mean (95% CI) Max (vibegron 3 mg): 5.03 (3.92, 6.15) mm Hg | HR Change from Baseline, Mean (95% CI) Maximum (vibegron 3 mg): 5.57 (4.25, 6.90) bpm | SBP Change from Baseline, Mean (95% CI) Maximum (vibegron 3 mg): 7.14 (5.18, 9.10) mm Hg | DBP Change from Baseline, Mean (95% CI) (week 1) (vibegron 3 mg): −0.37 (−1.69, 0.95) mm Hg | HR Change from Baseline, Mean (95% CI) (week 1) (vibegron 3 mg): 0.36 (−0.90, 1.62) bpm | SBP Change from Baseline, Mean (95% CI) (week 1) (vibegron 3 mg): −0.35 (−2.34, 1.65) mm Hg | subjects with orthostatic related AEs (vibegron 15 mg group): 0.3% | DBP Change from Baseline [≥] 5 mm Hg, n/N (%) (vibegron 15 mg): 15/132 (11.4) % | DBP Change from Baseline [≥] 10 mm Hg, n/N (%) (vibegron 15 mg): 3/132 (2.3) % | DBP Change from Baseline ≥15 mm Hg, n/N (%) (vibegron 15 mg): 1/132 (0.8) % | HR Change from Baseline [≥] 10 bpm, n/N (%) (vibegron 15 mg): 4/132 (3.0) % | HR Change from Baseline ≥5 bpm, n/N (%) (vibegron 15 mg): 17/132 (12.9) % | HR Change from Baseline ≥15 bpm, n/N (%) (vibegron 15 mg): 1/132 (0.8) % | SBP Change from Baseline [≥] 5 mm Hg, n/N (%) (vibegron 15 mg): 22/132 (16.7) % | SBP Change from Baseline [≥] 10 mm Hg, n/N (%) (vibegron 15 mg): 9/132 (6.8) % | SBP Change from Baseline ≥15 mm Hg, n/N (%) (vibegron 15 mg): 1/132 (0.8) % | DBP Change from Baseline, Mean (95% CI) Max (vibegron 15 mg): 6.37 (5.20, 7.53) mm Hg | HR Change from Baseline, Mean (95% CI) Maximum (vibegron 15 mg): 6.56 (5.20, 7.92) bpm | SBP Change from Baseline, Mean (95% CI) Maximum (vibegron 15 mg): 8.93 (7.18, 10.67) mm Hg | DBP Change from Baseline, Mean (95% CI) (week 1) (vibegron 15 mg): 0.03 (−1.52, 1.59) mm Hg | HR Change from Baseline, Mean (95% CI) (week 1) (vibegron 15 mg): 0.35 (−1.15, 1.85) bpm | SBP Change from Baseline, Mean (95% CI) (week 1) (vibegron 15 mg): −0.34 (−2.46, 1.78) mm Hg | DBP Change from Baseline [≥] 5 mm Hg, n/N (%) (vibegron 50 mg): 11/144 (7.6) % | DBP Change from Baseline [≥] 10 mm Hg, n/N (%) (vibegron 50 mg): 5/144 (3.5) % | DBP Change from Baseline ≥15 mm Hg, n/N (%) (vibegron 50 mg): 1/144 (0.7) % | HR Change from Baseline [≥] 10 bpm, n/N (%) (vibegron 50 mg): 4/144 (2.8) % | HR Change from Baseline ≥5 bpm, n/N (%) (vibegron 50 mg): 12/144 (8.3) % | HR Change from Baseline ≥15 bpm, n/N (%) (vibegron 50 mg): 1/144 (0.7) % | SBP Change from Baseline [≥] 5 mm Hg, n/N (%) (vibegron 50 mg): 24/144 (16.7) % | SBP Change from Baseline [≥] 10 mm Hg, n/N (%) (vibegron 50 mg): 14/144 (9.7) % | SBP Change from Baseline ≥15 mm Hg, n/N (%) (vibegron 50 mg): 3/144 (2.1) % | DBP Change from Baseline, Mean (95% CI) Max (vibegron 50 mg): 4.19 (3.10, 5.29) mm Hg | HR Change from Baseline, Mean (95% CI) Maximum (vibegron 50 mg): 5.49 (4.28, 6.69) bpm | SBP Change from Baseline, Mean (95% CI) Maximum (vibegron 50 mg): 7.01 (5.31, 8.70) mm Hg | DBP Change from Baseline, Mean (95% CI) (week 1) (vibegron 50 mg): −0.70 (−2.07, 0.67) mm Hg | HR Change from Baseline, Mean (95% CI) (week 1) (vibegron 50 mg): 0.29 (−0.88, 1.46) bpm | SBP Change from Baseline, Mean (95% CI) (week 1) (vibegron 50 mg): −0.79 (−2.65, 1.08) mm Hg | subjects with orthostatic related AEs (vibegron 100 mg group): 1.1% | DBP Change from Baseline [≥] 5 mm Hg, n/N (%) (vibegron 100 mg): 31/237 (13.1) % | DBP Change from Baseline [≥] 10 mm Hg, n/N (%) (vibegron 100 mg): 8/237 (3.4) % | DBP Change from Baseline ≥15 mm Hg, n/N (%) (vibegron 100 mg): 3/237 (1.3) % | HR Change from Baseline [≥] 10 bpm, n/N (%) (vibegron 100 mg): 7/237 (3.0) % | HR Change from Baseline ≥5 bpm, n/N (%) (vibegron 100 mg): 28/237 (11.8) % | HR Change from Baseline ≥15 bpm, n/N (%) (vibegron 100 mg): 1/237 (0.4) % | SBP Change from Baseline [≥] 5 mm Hg, n/N (%) (vibegron 100 mg): 28/237 (11.8) % | SBP Change from Baseline [≥] 10 mm Hg, n/N (%) (vibegron 100 mg): 10/237 (4.2) % | SBP Change from Baseline ≥15 mm Hg, n/N (%) (vibegron 100 mg): 3/237 (1.3) % | DBP Change from Baseline, Mean (95% CI) Max (vibegron 100 mg): 4.80 (3.88, 5.72) mm Hg | HR Change from Baseline, Mean (95% CI) Maximum (vibegron 100 mg): 6.12 (5.10, 7.15) bpm | SBP Change from Baseline, Mean (95% CI) Maximum (vibegron 100 mg): 6.51 (5.09, 7.93) mm Hg | DBP Change from Baseline, Mean (95% CI) (week 1) (vibegron 100 mg): −0.69 (−1.72, 0.34) mm Hg | HR Change from Baseline, Mean (95% CI) (week 1) (vibegron 100 mg): 0.35 (−0.69, 1.38) bpm | SBP Change from Baseline, Mean (95% CI) (week 1) (vibegron 100 mg): −0.77 (−2.22, 0.68) mm Hg
